According to ChEMBL document CHEMBL3044552, “Synthesis and biological evaluation of 1-(3-chloro-2-oxo-4-phenylazetidin-1-yl)-3-(2-oxo-2-(10H-phenothiazin-10-yl)ethyl)urea derivatives” (Med Chem Res, 2013):
In brackets after ≈: the same amount, converted by molar mass. Activity calls are given as the source filed them. The rule behind the calls is not given here.

Assays:
[1] = tested on: Monascus purpureus; test: Antifungal activity against Monascus purpureus after 24 hr by disk diffusion method; assay type: functional
[2] = tested on: Micrococcus luteus; test: Antibacterial activity against Micrococcus luteus after 18 hr by serial dilution method; assay type: functional
[3] = tested on: HeLa; test: Growth inhibition of Homo sapiens (human) HeLa cells at 100 uM after 48 hr by MTT assay; assay type: functional; conditions: read-out: GI
[4] = tested on: HeLa; test: Cytotoxicity against Homo sapiens (human) HeLa cells after 48 hr by MTT assay; assay type: functional, cell-based
[5] = tested on: Mycobacterium tuberculosis; test: Growth inhibition of Mycobacterium tuberculosis H37Rv at 10 ug/ml after 7 days by resazurin microplate assay; assay type: functional, organism-based
[6] = tested on: Candida albicans; test: Antifungal activity against Candida albicans after 18 hr by serial dilution method; assay type: functional
[7] = tested on: Escherichia coli; test: Antibacterial activity against Escherichia coli after 24 hr by disc diffusion method; assay type: functional
[8] = tested on: Bacillus subtilis; test: Antibacterial activity against Bacillus subtilis after 18 hr by serial dilution method; assay type: functional
[9] = tested on: HeLa; test: Growth inhibition of Homo sapiens (human) HeLa cells at 6.25 uM after 48 hr by MTT assay; assay type: functional; conditions: read-out: GI
[10] = tested on: Trichophyton rubrum; test: Antifungal activity against Trichophyton rubrum after 24 hr by disk diffusion method; assay type: functional
[11] = tested on: Monascus purpureus; test: Antifungal activity against Monascus purpureus after 18 hr by serial dilution method; assay type: functional
[12] = tested on: Micrococcus luteus; test: Antibacterial activity against Micrococcus luteus after 24 hr by disk diffusion method; assay type: functional
[13] = tested on: Vibrio cholerae; test: Antibacterial activity against Vibrio cholerae after 18 hr by serial dilution method; assay type: functional
[14] = tested on: HeLa; test: Growth inhibition of Homo sapiens (human) HeLa cells at 25 uM after 48 hr by MTT assay; assay type: functional; conditions: read-out: GI
[15] = tested on: Trichophyton rubrum; test: Antifungal activity against Trichophyton rubrum after 18 hr by serial dilution method; assay type: functional
[16] = tested on: Mycobacterium tuberculosis; test: Growth inhibition of Mycobacterium tuberculosis H37Rv at 1 ug/ml after 7 days by resazurin microplate assay; assay type: functional, organism-based
[17] = tested on: HeLa; test: Growth inhibition of Homo sapiens (human) HeLa cells at 50 uM after 48 hr by MTT assay; assay type: functional; conditions: read-out: GI
[18] = tested on: Escherichia coli; test: Antibacterial activity against Escherichia coli after 18 hr by serial dilution method; assay type: functional
[19] = tested on: HeLa; test: Growth inhibition of Homo sapiens (human) HeLa cells at 12.5 uM after 48 hr by MTT assay; assay type: functional; conditions: read-out: GI
[20] = tested on: Candida albicans; test: Antifungal activity against Candida albicans after 24 hr by disk diffusion method; assay type: functional
[21] = tested on: Mycobacterium tuberculosis; test: Growth inhibition of Mycobacterium tuberculosis H37Rv at 100 ug/ml after 7 days by resazurin microplate assay; assay type: functional, organism-based
[22] = tested on: Aspergillus niger; test: Antifungal activity against Aspergillus niger after 18 hr by serial dilution method; assay type: functional
[23] = tested on: Salmonella paratyphi; test: Antibacterial activity against Salmonella enterica subsp. enterica serovar Paratyphi A after 24 hr by disk diffusion method; assay type: functional
[24] = tested on: Vibrio cholerae; test: Antibacterial activity against Vibrio cholerae after 24 hr by disk diffusion method; assay type: functional
[25] = tested on: Aspergillus niger; test: Antifungal activity against Aspergillus niger after 24 hr by disc diffusion method; assay type: functional
[26] = tested on: Staphylococcus epidermidis; test: Antibacterial activity against Staphylococcus albus after 18 hr by serial dilution method; assay type: functional
[27] = tested on: Salmonella paratyphi; test: Antibacterial activity against Salmonella enterica subsp. enterica serovar Paratyphi A after 18 hr by serial dilution method; assay type: functional
[28] = tested on: Staphylococcus epidermidis; test: Antibacterial activity against Staphylococcus albus after 24 hr by disk diffusion method; assay type: functional
[29] = tested on: Bacillus subtilis; test: Antibacterial activity against Bacillus subtilis after 24 hr by disk diffusion method; assay type: functional
[30] = tested on: Staphylococcus aureus; test: Antibacterial activity against Staphylococcus aureus after 24 hr by disk diffusion method; assay type: functional
[31] = tested on: Staphylococcus aureus; test: Antibacterial activity against Staphylococcus aureus after 18 hr by serial dilution method; assay type: functional
[32] = tested on: Pseudomonas aeruginosa; test: Antibacterial activity against Pseudomonas aeruginosa after 18 hr by serial dilution method; assay type: functional
[33] = Antioxidant activity assessed as reduction of ferric ion after 30 min by spectrophotometric analysis; assay type: functional
[34] = tested on: Pseudomonas aeruginosa; test: Antibacterial activity against Pseudomonas aeruginosa after 24 hr by disc diffusion method; assay type: functional
[35] = tested on: Radical scavenging activity; test: Antioxidant activity assessed as DPPH radical scavenging activity after 30 min by spectrophotometric analysis; assay type: functional

Row | Structure (SMILES) | diameter of the inhibition zone (DIZ) [1] [mm] | MIC [2] [µg/mL] | inhibition of growth at 100 µM [3] [%] | IC50 [4] [µM] | MIC [6] [µg/mL] | diameter of the inhibition zone (DIZ) [7] [mm] | MIC [8] [µg/mL] | inhibition of growth at 6.25 µM [9] [%] | diameter of the inhibition zone (DIZ) [10] [mm] | MIC [11] [µg/mL] | diameter of the inhibition zone (DIZ) [12] [mm] | MIC [13] [µg/mL] | inhibition of growth at 25 µM [14] [%] | MIC [15] [µg/mL] | inhibition of growth at 50 µM [17] [%] | MIC [18] [µg/mL] | inhibition of growth at 12.5 µM [19] [%] | diameter of the inhibition zone (DIZ) [20] [mm] | MIC [22] [µg/mL] | diameter of the inhibition zone (DIZ) [23] [mm] | other results
1 | O=C(NCC(=O)N1c2ccccc2Sc2ccccc21)NN1C(=O)C(Cl)C1c1ccc([N+](=O)[O-])cc1 (centres undefined) | 13 | 250 (≈ 477 µM) | 89.5 | 18.3 | 62.5 (≈ 119 µM) | 15 | 250 (≈ 477 µM) | 23.6 | 5 | 62.5 (≈ 119 µM) | 3 | 250 (≈ 477 µM) | 56.5 | 250 (≈ 477 µM) | 73.2 | 62.5 (≈ 119 µM) | 41.8 | 14 | 500 (≈ 954 µM) | 7 | growth inhibition (GI) [5]: inactive; growth inhibition (GI) [16]: inactive; growth inhibition (GI) [21]: Active; diameter of the inhibition zone (DIZ) [24]: 5 mm; diameter of the inhibition zone (DIZ) [25]: 9 mm; MIC [26]: 250 µg/mL (≈ 477 µM); MIC [27]: 125 µg/mL (≈ 239 µM); diameter of the inhibition zone (DIZ) [28]: 4 mm; diameter of the inhibition zone (DIZ) [29]: 5 mm; diameter of the inhibition zone (DIZ) [30]: 4 mm; MIC [31]: 250 µg/mL (≈ 477 µM); MIC [32]: 500 µg/mL (≈ 954 µM)
2 | O=C(NCC(=O)N1c2ccccc2Sc2ccccc21)NN1C(=O)C(Cl)C1c1ccc(Cl)cc1 (centres undefined) | 12 | 250 (≈ 487 µM) | 44.3 | 111 | 125 (≈ 243 µM) | 19 | 125 (≈ 243 µM) | 0.123 | 6 | 62.5 (≈ 122 µM) | 5 | 62.5 (≈ 122 µM) | 15.9 | 250 (≈ 487 µM) | 33.6 | 62.5 (≈ 122 µM) | 5.9 | 7 | 125 (≈ 243 µM) | 5 | Activity [33]: Active; diameter of the inhibition zone (DIZ) [34]: 5 mm; EC50 [35]: 56 µg/mL (≈ 109 µM); diameter of the inhibition zone (DIZ) [24]: 18 mm; diameter of the inhibition zone (DIZ) [25]: 12 mm; MIC [26]: 250 µg/mL (≈ 487 µM); MIC [27]: 250 µg/mL (≈ 487 µM); diameter of the inhibition zone (DIZ) [28]: 5 mm; diameter of the inhibition zone (DIZ) [29]: 7 mm; diameter of the inhibition zone (DIZ) [30]: 4 mm; MIC [31]: 62.5 µg/mL (≈ 122 µM); MIC [32]: 250 µg/mL (≈ 487 µM)
